Assay results as given in PubChem BioAssay AID248 (DTP/NCI, 2004).
Several values for one entry are separate records, joined by “and”; a condition that tells them apart may be missing. Identical values can stand only once. Toxic doses and inconclusive results are not listed. No stated cut-off is given here; in the data, active means T/C of 150% or more; inactive means T/C below 125%.

Test system: L1210 leukemia ip in BDF1 mice, survival T/C
Assay: NCI In Vivo Anticancer Drug Screen. Data for tumor model L1210 Leukemia (intraperitoneal) in B6D2F1 (BDF1) mice
Details: endpoint: mean survival time, higher = longer survival
Summary of the method: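 Tumor cells were implanted, animals were treated, and survival was followed. The result divides the treated measurement by the vehicle-control measurement.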

[1] = dose: 100.0 mg/kg/injection, schedule: Q01DX001 (ip), vehicle: saline
[2] = dose: 200.0 mg/kg/injection, schedule: Q01DX001 (ip), vehicle: saline
[3] = dose: 100.0 mg/kg/injection, schedule: Q04DX002 (ip), vehicle: Klucel (hydroxypropylcellulose) (HPC)
[4] = dose: 200.0 mg/kg/injection, schedule: Q04DX002 (ip), vehicle: Klucel (hydroxypropylcellulose) (HPC)
[5] = dose: 400.0 mg/kg/injection, schedule: Q04DX002 (ip), vehicle: Klucel (hydroxypropylcellulose) (HPC)
[6] = dose: 50.0 mg/kg/injection, schedule: Q01DX009 (ip), vehicle: Klucel (hydroxypropylcellulose) (HPC)
[7] = dose: 100.0 mg/kg/injection, schedule: Q01DX009 (ip), vehicle: Klucel (hydroxypropylcellulose) (HPC)
[8] = dose: 200.0 mg/kg/injection, schedule: Q01DX009 (ip), vehicle: Klucel (hydroxypropylcellulose) (HPC)

Measured: T/C

Nc1ncnc2c1ncn2C1OC(C(=O)NCC(=O)O)C(O)C1O (stereo unspecified)
inactive: dose: 100.0 mg/kg/injection, schedule: Q01DX005 (ip), vehicle: saline 113 % of control | dose: 200.0 mg/kg/injection, schedule: Q01DX005 (ip), vehicle: saline 100 % of control | dose: 400.0 mg/kg/injection, schedule: Q01DX005 (ip), vehicle: saline 101 % of control

O=N[O-].O=N[O-].O=N[O-].O=N[O-].O=N[O-].O=N[O-].[Co+3].[Co].[NH2-].[NH2-].[NH2-].[NH2-].[NH2-].[NH2-]
inactive: dose: 25.0 mg/kg/injection, schedule: Q04DX002 (ip), vehicle: saline with Tween-80 102 % of control | dose: 50.0 mg/kg/injection, schedule: Q04DX002 (ip), vehicle: saline with Tween-80 115 % of control

CC(=O)C(=O)O
inactive: [1] 110 % of control | [2] 95 % of control | dose: 400.0 mg/kg/injection, schedule: Q01DX001 (ip), vehicle: saline 87 % of control

O=C1CC(c2ccccc2)=CN1c1ccc(Cl)cc1
inactive: [3] 89 % of control | [4] 104 % of control | [5] 112 % of control

COc1cc(C(=O)CC(O)(C(F)(F)F)C(F)(F)F)cc(OC)c1OC
inactive: [6] 95 % of control | dose: 100.0 mg/kg/injection, schedule: Q01DX001 (ip), vehicle: Klucel (hydroxypropylcellulose) (HPC) 86 % of control | [7] 97 % of control | dose: 200.0 mg/kg/injection, schedule: Q01DX001 (ip), vehicle: Klucel (hydroxypropylcellulose) (HPC) 100 % of control | [8] 98 % of control

CCc1[nH]c(=O)nc2[nH]c3ccccc3c12
inactive: [3] 90 % of control | [4] 93 % of control | [5] 97 % of control

O=C(C=C(C(F)(F)F)C(F)(F)F)c1ccc(Cl)c([N+](=O)[O-])c1
inactive: dose: 0.5 mg/kg/injection, schedule: Q01DX009 (ip), vehicle: other 98 % of control | dose: 1.0 mg/kg/injection, schedule: Q01DX009 (ip), vehicle: other 95 % of control | dose: 2.5 mg/kg/injection, schedule: Q01DX009 (ip), vehicle: other 101 % of control | dose: 2.5 mg/kg/injection, schedule: Q01DX009 (ip), vehicle: saline with Tween-80 96 % of control | dose: 6.0 mg/kg/injection, schedule: Q01DX001 (ip), vehicle: saline with Tween-80 103 % of control | dose: 12.0 mg/kg/injection, schedule: Q01DX001 (ip), vehicle: saline with Tween-80 98 % of control | dose: 25.0 mg/kg/injection, schedule: Q01DX001 (ip), vehicle: saline with Tween-80 95 % of control and 100 % of control

Cc1cccc(Cl)c1NC(=O)c1cccc(C(=O)Nc2c(C)cccc2Cl)c1
inactive: [7] 96 % of control | [8] 94 % of control | dose: 400.0 mg/kg/injection, schedule: Q01DX009 (ip), vehicle: Klucel (hydroxypropylcellulose) (HPC) 91 % of control

CC(C)N1CSC(=S)N(C(C)C)C1
inactive: dose: 100.0 mg/kg/injection, schedule: Q04DX002 (ip), vehicle: other 89 % of control | dose: 200.0 mg/kg/injection, schedule: Q04DX002 (ip), vehicle: other 100 % of control | dose: 400.0 mg/kg/injection, schedule: Q04DX002 (ip), vehicle: other 107 % of control

O/N=C1/CCCC/C1=C/c1ccccc1
inactive: dose: 100.0 mg/kg/injection, schedule: Q04DX003 (ip), vehicle: saline with Tween-80 101 % of control | dose: 200.0 mg/kg/injection, schedule: Q04DX003 (ip), vehicle: saline with Tween-80 97 % of control | dose: 400.0 mg/kg/injection, schedule: Q04DX003 (ip), vehicle: saline with Tween-80 100 % of control

Cn1c(=O)c2ccccc2c2cc(Br)ccc21
inactive: dose: 100.0 mg/kg/injection, schedule: Q04DX003 (ip), vehicle: other 90 % of control | dose: 200.0 mg/kg/injection, schedule: Q04DX003 (ip), vehicle: other 92 % of control | dose: 400.0 mg/kg/injection, schedule: Q04DX003 (ip), vehicle: other 95 % of control

Cc1nccnc1Sc1ccc(Br)cc1
inactive: [6] 106 % of control | [7] 113 % of control | [8] 106 % of control

Cc1c(C)c(C)c([N+](=O)[O-])c([N+](=O)[O-])c1C
inactive: dose: 50.0 mg/kg/injection, schedule: Q01DX009 (ip), vehicle: saline with Tween-80 112 % of control | dose: 100.0 mg/kg/injection, schedule: Q01DX009 (ip), vehicle: saline with Tween-80 93 % of control | dose: 100.0 mg/kg/injection, schedule: Q04DX002 (ip), vehicle: saline with Tween-80 97 % of control | dose: 200.0 mg/kg/injection, schedule: Q01DX009 (ip), vehicle: saline with Tween-80 93 % of control | dose: 200.0 mg/kg/injection, schedule: Q04DX002 (ip), vehicle: saline with Tween-80 114 % of control

CC(C)=CCC(CC=C(C)C)c1ccncc1 (tested in a mixture with another compound)
inactive: [1] 96 % of control | [2] 98 % of control

CCCNC(=O)Oc1cccc(C)c1
inactive: [3] 100 % of control | [4] 106 % of control | [5] 110 % of control
